We go through four compounds from PMC12785564, “Targeting Melanin Production: The Safety of Tyrosinase Inhibition” (International Journal of Molecular Sciences, 2025).

Bounds are passed on as bounds.

Data set [1] is described as follows: 3T3 Neutral Red Uptake (NRU) cytotoxicity / phototoxicity, OECD TG 432. Format: cell-based. To be noted: mouse, 3T3 cells; absence of UV light; Beiersdorf internal report; read-out: NR50 (IC50 for neural uptake), cytotoxicity in 3T3 NRU. The text has this:
(§1) From established in vitro guideline studies, potential genotoxicity and toxic effects at a cellular level can be elucidated. This can be complemented with a weight-of-evidence of any observed indicators of cytotoxicity in multiple assays. For instance, the 3T3 Neutral Red Uptake (NRU) assay, which was initially developed for phototoxicity, can provide an indication for local toxicity in the absence of UV light.
(§2) Thiamidol used for testing was sourced from Alzchem Group AG (Trostberg, Germany) with a purity of 99% w/w. For standard toxicological endpoints of skin irritation, phototoxicity and genotoxicity, in vitro studies were performed following equivalent methods to those described in the corresponding OECD Testing Guidelines: OECD Test Guideline No. 431 (In Vitro Skin Corrosion: Human Skin Model Test); OECD Test Guideline No. 439 (In Vitro Skin Irritation: Reconstructed Human Epidermis Test Method); OECD Test Guideline No. 432 (In Vitro 3T3 NRU Phototoxicity Test); OECD Test Guideline No. 471 (Bacterial Reverse Mutation Assay); OECD Test Guideline No. 487 (in vitro Mammalian Cell Micronucleus Test); and OECD Test Guideline No. 476 (in vitro Mammalian Cell Gene Mutation Test).

Data set [2] concerns 3T3. The description is as above. In kind it is cell-based. To be noted: presence of UV light.
Excerpt: as §1, §2

Data set [3] in a line: biotransformation in fresh pig skin. To be noted: after 24 h, irrespective of test sample concentration (0.3% and 1.0%). In kind it is in vitro ADME. The method, then:
(§3) Metabolism in skin is evident with approx. 50% of Thiamidol degraded in a pig skin assay compared to controls after 24 h, irrespective of test sample concentration. A semiquantitative analysis of the metabolites in the porcine in vitro model is shown in Figure 2, with the primary reactions due to direct glucuronic acid conjugation (phase II metabolism) at one of the free hydroxyl groups. Further degradation products could be attributed to a combination of phase I and phase II metabolism, i.e., hydroxylation and methylation.
(§4) A biotransformation study analyzed the degradation of Thiamidol in fresh pig skin at room temperature after 24 h exposure. A solution of 0.3% and 1.0% was prepared in 2-proanol. From this, about 25 µL of test solution was placed in three vials with 2.5 g of skin, as well as controls without skin or containing skin only. All samples were mixed with 0.5 mL of water, shaken and left open. Determination of the content of the test sample was carried out in parallel. After 24 h incubation, the samples were mixed with 2 mL of acetonitrile, placed in an ultrasonic bath for 10 min (resulting in a stop to any metabolic reactions) and extracted with 50% methanol, then shaken well and placed in an ultrasonic bath and filtered. Metabolites were then identified using liquid chromatography coupled with mass spectroscopy. […]

The next data set has as its target T1, COX1 (Homo sapiens, UniProt P23219).
T1 construct: purchased Eurofins Discovery (San Diego, CA, USA), SAFETYscan E/IC50 SELECT service
In words: SAFETYscan COX1 enzymatic inhibition. To be noted: 0.1 µM to 10 µM tested. In kind it is biochemical. As to the method: (§5) Pharmacological profiling was performed with the SAFETYscan^TM E/IC50 SELECT service provided by Eurofins Discovery (San Diego, CA, USA), based on the findings of in vitro assays used in pharmaceutical companies. Increasing concentrations of Thiamidol (0.1 µM to 10 µM) were tested against various ion channels, and a total of seventy-eight assays performed utilizing various output reads, including GPCR cAMP modulation, calcium mobilization, nuclear hormone receptor interactions, KINOMEscan binding, ion channel interactions, transporter interactions and enzymatic reactions. Methods are available online via Eurofins Discovery in the format of a sample report.

In data set [4] the target is recombinant human tyrosinase (hTyr). Also on record: method as in PMID 29427586. To be noted: read-out: half-maximal inhibitory concentration (IC50) for hTyr; cited from earlier work.
For another data set, the target named is T2, dopamine transport (DAT) (Homo sapiens, UniProt Q01959).
T2 construct: purchased Eurofins Discovery (San Diego, CA, USA), SAFETYscan E/IC50 SELECT service
In words: SAFETYscan DAT assay. In kind it is biochemical. To be noted: 0.1 µM to 10 µM tested. As to the method: as §5

Data set [5] has as its system reconstructed human epidermis. In words: in vitro skin corrosion / skin irritation, OECD TG 431 and 439 (human skin model, reconstructed human epidermis). Format: cell-based. To be noted: non-animal OECD methods.
Excerpt: These are amongst the first and most established non-animal methods adopted by the Organisation for Economic Co-operation and Development. Clinical skin tolerability studies for the final formulation containing Thiamidol provide confirmatory evidence but also information about consumer sensory experiences.
as §2

Data set [6] deals with T3, monoamine oxidase A (MOAO) (Homo sapiens, UniProt P21397).
T3 construct: purchased Eurofins Discovery (San Diego, CA, USA), SAFETYscan E/IC50 SELECT service
T3 sequence (P21397 1-527): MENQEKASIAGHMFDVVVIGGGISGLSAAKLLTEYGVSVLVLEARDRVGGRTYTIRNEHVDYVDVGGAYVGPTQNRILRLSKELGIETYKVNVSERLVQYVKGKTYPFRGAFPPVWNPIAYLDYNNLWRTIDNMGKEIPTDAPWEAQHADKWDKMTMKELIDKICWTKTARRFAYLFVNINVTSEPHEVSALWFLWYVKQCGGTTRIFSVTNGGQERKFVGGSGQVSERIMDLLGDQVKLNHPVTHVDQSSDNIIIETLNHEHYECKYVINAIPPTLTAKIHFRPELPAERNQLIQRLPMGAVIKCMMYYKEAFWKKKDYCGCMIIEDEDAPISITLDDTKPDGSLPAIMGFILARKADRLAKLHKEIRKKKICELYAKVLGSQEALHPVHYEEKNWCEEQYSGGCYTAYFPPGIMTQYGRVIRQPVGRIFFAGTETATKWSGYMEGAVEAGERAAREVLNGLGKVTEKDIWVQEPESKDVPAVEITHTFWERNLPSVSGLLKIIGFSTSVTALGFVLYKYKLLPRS
The data set can be described thus: SAFETYscan monoamine oxidase A enzymatic inhibition. Format: biochemical. To be noted: 0.1 µM to 10 µM tested. As to the method:
as §5

For a further data set, the target named is T4, COX2 (Homo sapiens, UniProt P35354).
T4 construct: purchased Eurofins Discovery (San Diego, CA, USA), SAFETYscan E/IC50 SELECT service
T4 sequence (P35354 18-604): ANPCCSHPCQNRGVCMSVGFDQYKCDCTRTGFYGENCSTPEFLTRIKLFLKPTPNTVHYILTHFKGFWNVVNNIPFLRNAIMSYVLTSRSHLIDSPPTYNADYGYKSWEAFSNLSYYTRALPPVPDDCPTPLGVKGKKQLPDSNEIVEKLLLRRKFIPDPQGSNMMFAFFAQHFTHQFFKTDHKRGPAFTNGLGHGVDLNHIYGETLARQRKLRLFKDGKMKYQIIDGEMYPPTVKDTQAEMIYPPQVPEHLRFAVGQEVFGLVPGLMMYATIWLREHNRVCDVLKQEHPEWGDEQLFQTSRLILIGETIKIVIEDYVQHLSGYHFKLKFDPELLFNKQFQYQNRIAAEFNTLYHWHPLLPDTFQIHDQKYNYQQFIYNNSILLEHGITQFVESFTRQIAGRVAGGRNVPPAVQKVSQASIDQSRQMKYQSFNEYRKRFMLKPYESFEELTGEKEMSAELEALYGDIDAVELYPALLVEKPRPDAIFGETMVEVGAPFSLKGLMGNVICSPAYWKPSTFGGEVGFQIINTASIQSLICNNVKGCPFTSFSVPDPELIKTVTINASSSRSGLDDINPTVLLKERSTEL
The data set can be described thus: SAFETYscan COX2 enzymatic inhibition. Format: biochemical. To be noted: 0.1 µM to 10 µM tested. The method, then: as §5

The target of data set [7] is T5, norepinephrine transport (NET) (Homo sapiens, UniProt P23975).
T5 construct: purchased Eurofins Discovery (San Diego, CA, USA), SAFETYscan E/IC50 SELECT service
In words: SAFETYscan NET assay. In kind it is biochemical. To be noted: 0.1 µM to 10 µM tested. The method, then: as §5

For another data set, the system named is hyperpigmentation. To be noted: cited from earlier work.
Data set [8] in a line: substrate depletion in human hepatocytes. Format: in vitro ADME. To be noted: 5 μM, 37 °C, over 240 min. The method, then:
as §3
as §4, with “filtered.” for “filtered. Metabolites were then identified using liquid chromatography coupled with mass spectroscopy.”
The in vitro intrinsic clearances and half-life readouts were expressed as µL/min/10^6 cells and in minutes, respectively. […]

For data set [9], the system named is 3T3. Also on record: method as in PMID 15598357. To be noted: same assay; read-out: IC50 for cytotoxicity in 3T3 Neutral Red Uptake (NRU); cited from earlier work.

T2 sequence (Q01959 whole entry): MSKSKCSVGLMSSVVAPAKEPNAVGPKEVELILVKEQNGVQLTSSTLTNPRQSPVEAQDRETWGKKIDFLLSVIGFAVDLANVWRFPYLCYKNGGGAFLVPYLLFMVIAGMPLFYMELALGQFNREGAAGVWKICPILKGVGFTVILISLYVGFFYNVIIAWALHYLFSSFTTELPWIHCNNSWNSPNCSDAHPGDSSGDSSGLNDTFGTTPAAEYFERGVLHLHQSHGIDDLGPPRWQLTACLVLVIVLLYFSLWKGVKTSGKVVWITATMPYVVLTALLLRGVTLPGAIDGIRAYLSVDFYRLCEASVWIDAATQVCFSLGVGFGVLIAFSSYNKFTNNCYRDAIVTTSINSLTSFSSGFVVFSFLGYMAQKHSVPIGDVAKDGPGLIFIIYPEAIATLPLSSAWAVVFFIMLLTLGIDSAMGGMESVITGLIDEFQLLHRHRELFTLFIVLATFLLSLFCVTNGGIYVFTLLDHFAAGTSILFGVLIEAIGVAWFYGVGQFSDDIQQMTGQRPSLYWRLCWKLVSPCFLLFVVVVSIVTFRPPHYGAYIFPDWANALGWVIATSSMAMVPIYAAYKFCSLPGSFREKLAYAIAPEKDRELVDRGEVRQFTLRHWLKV
T1 sequence (P23219 24-599): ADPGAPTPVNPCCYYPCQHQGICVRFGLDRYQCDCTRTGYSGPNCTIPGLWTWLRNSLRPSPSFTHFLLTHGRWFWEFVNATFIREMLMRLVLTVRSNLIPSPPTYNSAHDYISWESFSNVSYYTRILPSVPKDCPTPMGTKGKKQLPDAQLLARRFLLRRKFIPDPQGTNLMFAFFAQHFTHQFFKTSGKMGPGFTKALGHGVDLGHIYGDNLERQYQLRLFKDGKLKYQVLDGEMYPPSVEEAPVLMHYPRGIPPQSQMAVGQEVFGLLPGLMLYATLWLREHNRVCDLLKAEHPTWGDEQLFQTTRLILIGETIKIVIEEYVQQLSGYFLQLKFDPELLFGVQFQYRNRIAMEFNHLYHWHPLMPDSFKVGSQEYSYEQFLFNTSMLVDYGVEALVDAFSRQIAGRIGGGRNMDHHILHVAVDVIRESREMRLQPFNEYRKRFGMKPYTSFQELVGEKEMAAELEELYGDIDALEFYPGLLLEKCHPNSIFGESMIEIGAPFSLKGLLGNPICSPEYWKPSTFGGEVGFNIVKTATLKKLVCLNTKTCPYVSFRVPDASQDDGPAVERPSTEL
T5 sequence (P23975 whole entry): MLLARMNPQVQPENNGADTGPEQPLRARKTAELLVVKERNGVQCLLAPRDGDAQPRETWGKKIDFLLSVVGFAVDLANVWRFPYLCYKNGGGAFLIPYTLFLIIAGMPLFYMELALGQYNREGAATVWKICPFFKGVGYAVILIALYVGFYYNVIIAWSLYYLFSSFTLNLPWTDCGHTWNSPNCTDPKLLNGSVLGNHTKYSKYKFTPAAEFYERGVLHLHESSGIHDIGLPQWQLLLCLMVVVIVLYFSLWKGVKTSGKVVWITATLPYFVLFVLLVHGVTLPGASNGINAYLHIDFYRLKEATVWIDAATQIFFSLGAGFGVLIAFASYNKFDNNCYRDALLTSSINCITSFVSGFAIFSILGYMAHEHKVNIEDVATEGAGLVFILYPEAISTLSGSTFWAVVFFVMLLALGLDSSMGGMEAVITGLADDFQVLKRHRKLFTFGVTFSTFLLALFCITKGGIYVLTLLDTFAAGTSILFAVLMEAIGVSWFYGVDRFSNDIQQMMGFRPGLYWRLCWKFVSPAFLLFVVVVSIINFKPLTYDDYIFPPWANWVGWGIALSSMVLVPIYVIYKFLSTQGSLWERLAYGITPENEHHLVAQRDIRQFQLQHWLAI

Take `CC(C)C(=O)Nc1nc(-c2ccc(O)cc2O)cs1` [Thiamidol, isobutylamido thiazolyl resorcinol]: the IC50 in [1] is 136 µM; on COX1 it was greater than 1000 nM; in [4] it was 1100 nM; on dopamine transport (DAT) it was greater than 1000 nM; in [6] it was greater than 1000 nM; at COX2 it was greater than 1000 nM. This compound gave an IC50 in data set [7] of 360 nM. Further, in the data set with 3T3 [2], the “phototoxicity: distinction of NR50 in the presence of UV light” value is on record as “no biologically significant distinction”. Also, the “degraded in pig skin assay compared to controls” value in data set [3] was “approx. 50%”. For the same compound, in [5], the “skin corrosion and irritation category” value is reported as “not categorized as corrosive or irritating to the skin”. In the data set on hyperpigmentation (Thiamidol formulations, diverse skin- and phototypes), the “adverse effects in clinical studies” value is recorded as “no significant adverse effects”. The “effect on hyperpigmentation in clinical studies” value in the data set with hyperpigmentation (UV-induced solar lentigines, melasma, acne- and laser-induced PIH) is “effectively reduces hyperpigmentation”. In data set [8], the “in vitro half-life in human hepatocytes” value is recorded as “in the minute range”.
Turning to `Oc1ccccc1O` [catechol], the IC50 with 3T3 [9] is 0.1 µM.
For the compound `Oc1ccc(O)cc1` [hydroquinone], in the data set with 3T3 [9], the IC50 is 12.9 µM.
Turning to `Oc1cccc(O)c1` [resorcinol, 1,3-benzenediol], in the data set with 3T3 [9], the IC50 was 17.3 µM.
